According to patent US11377442B2, “Small molecule agonists and antagonists of NR2F6 activity” (ZANDER THERAPEUTICS, INC., priority 2016, dated 2022):
Read-outs that look alike come from different tables or passages of the source.

Key:
Format in all cases: cell-based
HEK293 pGL4 = test: Firefly_pGL signal, cmpd/DMSO (pGL4 control cells); conditions: Homo sapiens
NR2F6 LBD = biological target: T1, NR2F6 LBD (Homo sapiens, UniProt P10588); test: NR2F6 LBD transient transfection; conditions: LBD
T1 construct: expressed in transfected cells
T1 sequence (P10588 165-393 limits assumed): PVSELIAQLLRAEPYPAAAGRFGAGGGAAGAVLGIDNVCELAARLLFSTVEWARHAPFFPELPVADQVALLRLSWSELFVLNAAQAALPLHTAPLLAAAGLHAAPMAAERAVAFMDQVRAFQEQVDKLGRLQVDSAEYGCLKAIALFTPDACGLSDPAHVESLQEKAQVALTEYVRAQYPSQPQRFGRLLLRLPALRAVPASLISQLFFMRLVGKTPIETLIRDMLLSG
How it was run: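 LBD-transfected cells treated at 40, 10, 2 and 0.5 μM (4 replicates); cytotoxicity measured in parallel, normalized to DMSO (0%) and zero signal (100%). Higher concentrations excluded where signal loss reflected toxicity.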

Renilla = Renilla signal in NR2F6 agonist screening, cmpd/DMSO; conditions: Renilla, F4
NR2F6 = biological target: T2, NR2F6 (Homo sapiens, UniProt P10588); test: NR2F6 agonist screening, Firefly signal cmpd/DMSO
T2 construct: expressed in transfected cells; also transient transfection
T2 sequence (P10588 1-404): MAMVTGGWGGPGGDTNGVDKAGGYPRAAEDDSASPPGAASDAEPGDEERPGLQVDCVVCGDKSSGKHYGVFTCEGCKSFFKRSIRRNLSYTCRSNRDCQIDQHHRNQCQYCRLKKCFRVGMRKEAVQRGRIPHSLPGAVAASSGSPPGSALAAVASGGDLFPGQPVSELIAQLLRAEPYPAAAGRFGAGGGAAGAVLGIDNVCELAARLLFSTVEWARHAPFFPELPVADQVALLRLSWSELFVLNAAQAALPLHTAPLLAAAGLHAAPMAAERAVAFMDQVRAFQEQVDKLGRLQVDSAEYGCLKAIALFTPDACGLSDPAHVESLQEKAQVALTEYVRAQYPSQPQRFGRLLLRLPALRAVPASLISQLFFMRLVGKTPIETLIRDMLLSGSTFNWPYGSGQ

[1] = HEK293, 0.5 uM, pGL4, read-out: Firefly pGL4, cmpd/DMSO (mean)
[2] = HEK293, 2 uM, pGL4, read-out: Firefly pGL4, cmpd/DMSO (mean)
[3] = HEK293, 10 uM, pGL4, read-out: Firefly pGL4, cmpd/DMSO (mean)
[4] = HEK293, 40 uM, pGL4, read-out: Firefly pGL4, cmpd/DMSO (mean)
[5] = HEK293, pGL4, 1% FBS, 0.5 uM, read-out: Firefly, pGL4, 1% FBS, cmpd/DMSO (mean)
[6] = HEK293, pGL4, 1% FBS, 2 uM, read-out: Firefly, pGL4, 1% FBS, cmpd/DMSO (mean)
[7] = HEK293, pGL4, 1% FBS, 10 uM, read-out: Firefly, pGL4, 1% FBS, cmpd/DMSO (mean)
[8] = HEK293, pGL4, 1% FBS, 40 uM, read-out: Firefly, pGL4, 1% FBS, cmpd/DMSO (mean)
[9] = HEK293, pGL4, 10% FBS, 0.5 uM, read-out: Firefly, pGL4, 10% FBS, cmpd/DMSO (mean)
[10] = HEK293, pGL4, 10% FBS, 2 uM, read-out: Firefly, pGL4, 10% FBS, cmpd/DMSO (mean)
[11] = HEK293, pGL4, 10% FBS, 10 uM, read-out: Firefly, pGL4, 10% FBS, cmpd/DMSO (mean)
[12] = HEK293, pGL4, 10% FBS, 40 uM, read-out: Firefly, pGL4, 10% FBS, cmpd/DMSO (mean)
[13] = read-out: Renilla, F4, cmpd/DMSO (mean)
[14] = 1% FBS, read-out: Renilla, F4, 1% FBS, cmpd/DMSO (mean)
[15] = 10% FBS, read-out: Renilla, F4, 10% FBS, cmpd/DMSO (mean)

Structure (SMILES): O=S1(=O)C[C@H](NCc2ccncc2)[C@@H](S(=O)(=O)c2cccs2)C1 [Compound D108]
- fold induction at 0.5 µM (HEK293 pGL4; [1]): 0.9
- fold induction at 2 µM (HEK293 pGL4; [2]): 1
- fold induction at 10 µM (HEK293 pGL4; [3]): 1.2
- fold induction at 40 µM (HEK293 pGL4; [4]): 1.5
- fold induction at 0.5 µM (HEK293 pGL4; [5]): 1.5
- fold induction at 2 µM (HEK293 pGL4; [6]): 1.2
- fold induction at 10 µM (HEK293 pGL4; [7]): 1.2
- fold induction at 40 µM (HEK293 pGL4; [8]): 1.1
- fold induction at 0.5 µM (HEK293 pGL4; [9]): 1.1
- fold induction at 2 µM (HEK293 pGL4; [10]): 1.1
- fold induction at 10 µM (HEK293 pGL4; [11]): 1.1
- fold induction at 40 µM (HEK293 pGL4; [12]): 1.4
- Firefly LBD, cmpd/DMSO (mean) (NR2F6 LBD; 0.5 uM): 1.0
- Firefly LBD, cmpd/DMSO (mean) (NR2F6 LBD; 2 uM): 1.4
- Firefly LBD, cmpd/DMSO (mean) (NR2F6 LBD; 10 uM): 1.3
- Firefly LBD, cmpd/DMSO (mean) (NR2F6 LBD; 40 uM): 2.1
- fold induction at 0.5 µM (Renilla; [13]): 1
- fold induction at 2 µM (Renilla; [13]): 1
- fold induction at 10 µM (Renilla; [13]): 1.1
- fold induction at 40 µM (Renilla; [13]): 1.2
- fold induction at 0.5 µM (Renilla; [14]): 1
- fold induction at 2 µM (Renilla; [14]): 1.2
- fold induction at 10 µM (Renilla; [14]): 1.1
- fold induction at 40 µM (Renilla; [14]): 1.4
- fold induction at 0.5 µM (Renilla; [15]): 1
- fold induction at 2 µM (Renilla; [15]): 0.9
- fold induction at 10 µM (Renilla; [15]): 1
- fold induction at 40 µM (Renilla; [15]): 1.4
- Firefly F4, cmpd/DMSO (mean) (NR2F6; 0.5 uM): 1.0
- Firefly F4, cmpd/DMSO (mean) (NR2F6; 2 uM): 1.3
- Firefly F4, cmpd/DMSO (mean) (NR2F6; 10 uM): 1.3
- Firefly F4, cmpd/DMSO (mean) (NR2F6; 40 uM): 1.9
- Firefly, F4, 1% FBS, cmpd/DMSO (mean) (NR2F6; 0.5 uM): 1.2
- Firefly, F4, 1% FBS, cmpd/DMSO (mean) (NR2F6; 2 uM): 1.1
- Firefly, F4, 1% FBS, cmpd/DMSO (mean) (NR2F6; 10 uM): 1.1
- Firefly, F4, 1% FBS, cmpd/DMSO (mean) (NR2F6; 40 uM): 1.8
- Firefly, F4, 10% FBS, cmpd/DMSO (mean) (NR2F6; 10% FBS, 0.5 uM): 1.2
- Firefly, F4, 10% FBS, cmpd/DMSO (mean) (NR2F6; 10% FBS, 2 uM): 1.0
- Firefly, F4, 10% FBS, cmpd/DMSO (mean) (NR2F6; 10% FBS, 10 uM): 1.1
- Firefly, F4, 10% FBS, cmpd/DMSO (mean) (NR2F6; 10% FBS, 40 uM): 2.2

Structure (SMILES): CCC(C)N[C@H]1CS(=O)(=O)C[C@@H]1S(=O)(=O)c1ccc(C)cc1 (stereo partly shown) [Compound D113]
- fold induction at 0.5 µM (HEK293 pGL4; [1]): 1.2
- fold induction at 2 µM (HEK293 pGL4; [2]): 1.1
- fold induction at 10 µM (HEK293 pGL4; [3]): 2.6
- fold induction at 40 µM (HEK293 pGL4; [4]): 2
- fold induction at 0.5 µM (HEK293 pGL4; [5]): 1
- fold induction at 2 µM (HEK293 pGL4; [6]): 1.2
- fold induction at 10 µM (HEK293 pGL4; [7]): 1.8
- fold induction at 40 µM (HEK293 pGL4; [8]): 1.6
- fold induction at 0.5 µM (HEK293 pGL4; [9]): 1.1
- fold induction at 2 µM (HEK293 pGL4; [10]): 1.2
- fold induction at 10 µM (HEK293 pGL4; [11]): 1.7
- fold induction at 40 µM (HEK293 pGL4; [12]): 2.5
- Firefly LBD, cmpd/DMSO (mean) (NR2F6 LBD; 0.5 uM): 1.1
- Firefly LBD, cmpd/DMSO (mean) (NR2F6 LBD; 2 uM): 1.3
- Firefly LBD, cmpd/DMSO (mean) (NR2F6 LBD; 10 uM): 2.2
- Firefly LBD, cmpd/DMSO (mean) (NR2F6 LBD; 40 uM): 2.5
- fold induction at 0.5 µM (Renilla; [13]): 1.1
- fold induction at 2 µM (Renilla; [13]): 1
- fold induction at 10 µM (Renilla; [13]): 1.3
- fold induction at 40 µM (Renilla; [13]): 1.4
- fold induction at 0.5 µM (Renilla; [14]): 1.3
- fold induction at 2 µM (Renilla; [14]): 1.2
- fold induction at 10 µM (Renilla; [14]): 1.6
- fold induction at 40 µM (Renilla; [14]): 1.8
- fold induction at 0.5 µM (Renilla; [15]): 1
- fold induction at 2 µM (Renilla; [15]): 1
- fold induction at 10 µM (Renilla; [15]): 1.2
- fold induction at 40 µM (Renilla; [15]): 1.8
- Firefly F4, cmpd/DMSO (mean) (NR2F6; 0.5 uM): 1.3
- Firefly F4, cmpd/DMSO (mean) (NR2F6; 2 uM): 1.6
- Firefly F4, cmpd/DMSO (mean) (NR2F6; 10 uM): 2.8
- Firefly F4, cmpd/DMSO (mean) (NR2F6; 40 uM): 3.3
- F4, Firefly/Renilla for S/B(F4) > 3 (NR2F6; 10% FBS, 40 uM): 3.2
- Firefly, F4/pGL4 for S/B(F4) > 3 (NR2F6; 10% FBS, 40 uM): 2.3
- Firefly, F4, 1% FBS, cmpd/DMSO (mean) (NR2F6; 0.5 uM): 1.4
- Firefly, F4, 1% FBS, cmpd/DMSO (mean) (NR2F6; 2 uM): 1.1
- Firefly, F4, 1% FBS, cmpd/DMSO (mean) (NR2F6; 10 uM): 2.8
- Firefly, F4, 1% FBS, cmpd/DMSO (mean) (NR2F6; 40 uM): 2.5
- Firefly, F4, 10% FBS, cmpd/DMSO (mean) (NR2F6; 10% FBS, 0.5 uM): 1.7
- Firefly, F4, 10% FBS, cmpd/DMSO (mean) (NR2F6; 10% FBS, 2 uM): 1.5
- Firefly, F4, 10% FBS, cmpd/DMSO (mean) (NR2F6; 10% FBS, 10 uM): 2.1
- Firefly, F4, 10% FBS, cmpd/DMSO (mean) (NR2F6; 10% FBS, 40 uM): 5.8
